Results reported in BigSolDB 2.1.

`Nc1cccc(C(=O)O)c1` gave a solubility (mole fraction) (in 1,4-dioxane, 288.15 K) of 0.0319, a solubility (mole fraction) (in 1,4-dioxane, 293.15 K) of 0.035 and a solubility (mole fraction) (in 1,4-dioxane, 298.15 K) of 0.0394. For the same compound, the solubility (mole fraction) (in 1,4-dioxane, 303.15 K) was 0.042, the solubility (mole fraction) (in 1,4-dioxane, 308.15 K) was 0.0469 and the solubility (mole fraction) (in 1,4-dioxane, 313.15 K) was 0.0549. For the same compound, the solubility (mole fraction) (in 1,4-dioxane, 318.15 K) was 0.0627, the solubility (mole fraction) (in 1,4-dioxane, 323.15 K) was 0.0709 and the solubility (mole fraction) (in acetone, 283.15 K) was 0.0289. It also gave a solubility (mole fraction) (in acetone, 288.15 K) of 0.0295, a solubility (mole fraction) (in acetone, 293.15 K) of 0.0304 and a solubility (mole fraction) (in acetone, 298.15 K) of 0.0325. The solubility (mole fraction) (in acetone, 303.15 K) was 0.0375, the solubility (mole fraction) (in acetone, 308.15 K) was 0.0414 and the solubility (mole fraction) (in acetone, 313.15 K) was 0.0455. It also gave a solubility (mole fraction) (in acetone, 318.15 K) of 0.052, a solubility (mole fraction) (in acetone, 323.15 K) of 0.0601 and a solubility (mole fraction) (in acetonitrile, 283.15 K) of 0.00192. For the same compound, the solubility (mole fraction) (in acetonitrile, 288.15 K) was 0.00225, the solubility (mole fraction) (in acetonitrile, 293.15 K) was 0.00264 and the solubility (mole fraction) (in acetonitrile, 298.15 K) was 0.00313. The solubility (mole fraction) (in acetonitrile, 303.15 K) was 0.00358, the solubility (mole fraction) (in acetonitrile, 308.15 K) was 0.00452 and the solubility (mole fraction) (in acetonitrile, 313.15 K) was 0.00561. It also gave a solubility (mole fraction) (in acetonitrile, 318.15 K) of 0.00664, a solubility (mole fraction) (in acetonitrile, 323.15 K) of 0.00765 and a solubility (mole fraction) (in ethanol, 283.15 K) of 0.00821. It also gave a solubility (mole fraction) (in ethanol, 288.15 K) of 0.00955, a solubility (mole fraction) (in ethanol, 293.15 K) of 0.0107 and a solubility (mole fraction) (in ethanol, 298.15 K) of 0.0117. For the same compound, the solubility (mole fraction) (in ethanol, 303.15 K) was 0.0137, the solubility (mole fraction) (in ethanol, 308.15 K) was 0.0154 and the solubility (mole fraction) (in ethanol, 313.15 K) was 0.0182. It also gave a solubility (mole fraction) (in ethanol, 318.15 K) of 0.0218, a solubility (mole fraction) (in ethanol, 323.15 K) of 0.0241 and a solubility (mole fraction) (in isobutanol, 283.15 K) of 0.00506. It also gave a solubility (mole fraction) (in isobutanol, 288.15 K) of 0.00542, a solubility (mole fraction) (in isobutanol, 293.15 K) of 0.00599 and a solubility (mole fraction) (in isobutanol, 298.15 K) of 0.00683. It also gave a solubility (mole fraction) (in isobutanol, 303.15 K) of 0.00796, a solubility (mole fraction) (in isobutanol, 308.15 K) of 0.00946 and a solubility (mole fraction) (in isobutanol, 313.15 K) of 0.0113. It also gave a solubility (mole fraction) (in isobutanol, 318.15 K) of 0.0131, a solubility (mole fraction) (in isobutanol, 323.15 K) of 0.0158 and a solubility (mole fraction) (in isopropanol, 283.15 K) of 0.00638. It also gave a solubility (mole fraction) (in isopropanol, 288.15 K) of 0.00712, a solubility (mole fraction) (in isopropanol, 293.15 K) of 0.00801 and a solubility (mole fraction) (in isopropanol, 298.15 K) of 0.00943. For the same compound, the solubility (mole fraction) (in isopropanol, 303.15 K) was 0.0112, the solubility (mole fraction) (in isopropanol, 308.15 K) was 0.0135 and the solubility (mole fraction) (in isopropanol, 313.15 K) was 0.0165. It also gave a solubility (mole fraction) (in isopropanol, 318.15 K) of 0.0204, a solubility (mole fraction) (in isopropanol, 323.15 K) of 0.023 and a solubility (mole fraction) (in isopropyl acetate, 283.15 K) of 0.00459. The solubility (mole fraction) (in isopropyl acetate, 288.15 K) was 0.00495, the solubility (mole fraction) (in isopropyl acetate, 293.15 K) was 0.00526 and the solubility (mole fraction) (in isopropyl acetate, 298.15 K) was 0.00591. It also gave a solubility (mole fraction) (in isopropyl acetate, 303.15 K) of 0.00674, a solubility (mole fraction) (in isopropyl acetate, 308.15 K) of 0.00765 and a solubility (mole fraction) (in isopropyl acetate, 313.15 K) of 0.00917. For the same compound, the solubility (mole fraction) (in isopropyl acetate, 318.15 K) was 0.0113, the solubility (mole fraction) (in isopropyl acetate, 323.15 K) was 0.0135 and the solubility (mole fraction) (in methanol, 283.15 K) was 0.012. For the same compound, the solubility (mole fraction) (in methanol, 288.15 K) was 0.0128, the solubility (mole fraction) (in methanol, 293.15 K) was 0.0139 and the solubility (mole fraction) (in methanol, 298.15 K) was 0.0145. It also gave a solubility (mole fraction) (in methanol, 303.15 K) of 0.0166, a solubility (mole fraction) (in methanol, 308.15 K) of 0.0187 and a solubility (mole fraction) (in methanol, 313.15 K) of 0.0219. For the same compound, the solubility (mole fraction) (in methanol, 318.15 K) was 0.0254, the solubility (mole fraction) (in methanol, 323.15 K) was 0.0296 and the solubility (mole fraction) (in methyl acetate, 283.15 K) was 0.00731. It also gave a solubility (mole fraction) (in methyl acetate, 288.15 K) of 0.00776, a solubility (mole fraction) (in methyl acetate, 293.15 K) of 0.00841 and a solubility (mole fraction) (in methyl acetate, 298.15 K) of 0.00918. It also gave a solubility (mole fraction) (in methyl acetate, 303.15 K) of 0.0108, a solubility (mole fraction) (in methyl acetate, 308.15 K) of 0.0128 and a solubility (mole fraction) (in methyl acetate, 313.15 K) of 0.0149. It also gave a solubility (mole fraction) (in methyl acetate, 318.15 K) of 0.0173, a solubility (mole fraction) (in methyl acetate, 323.15 K) of 0.0203 and a solubility (mole fraction) (in n-butanol, 283.15 K) of 0.00532. It also gave a solubility (mole fraction) (in n-butanol, 288.15 K) of 0.00595, a solubility (mole fraction) (in n-butanol, 293.15 K) of 0.00682 and a solubility (mole fraction) (in n-butanol, 298.15 K) of 0.00768. It also gave a solubility (mole fraction) (in n-butanol, 303.15 K) of 0.00934, a solubility (mole fraction) (in n-butanol, 308.15 K) of 0.0117 and a solubility (mole fraction) (in n-butanol, 313.15 K) of 0.0134. The solubility (mole fraction) (in n-butanol, 318.15 K) was 0.0156, the solubility (mole fraction) (in n-butanol, 323.15 K) was 0.0175 and the solubility (mole fraction) (in n-propanol, 283.15 K) was 0.00568. For the same compound, the solubility (mole fraction) (in n-propanol, 288.15 K) was 0.00675, the solubility (mole fraction) (in n-propanol, 293.15 K) was 0.00804 and the solubility (mole fraction) (in n-propanol, 298.15 K) was 0.00911. For the same compound, the solubility (mole fraction) (in n-propanol, 303.15 K) was 0.0107, the solubility (mole fraction) (in n-propanol, 308.15 K) was 0.0126 and the solubility (mole fraction) (in n-propanol, 313.15 K) was 0.014. It also gave a solubility (mole fraction) (in n-propanol, 318.15 K) of 0.016, a solubility (mole fraction) (in n-propanol, 323.15 K) of 0.019 and a solubility (mole fraction) (in water, 283.15 K) of 0.000506. For the same compound, the solubility (mole fraction) (in water, 288.15 K) was 0.000628, the solubility (mole fraction) (in water, 293.15 K) was 0.000725 and the solubility (mole fraction) (in water, 298.15 K) was 0.000804. For the same compound, the solubility (mole fraction) (in water, 303.15 K) was 0.000976, the solubility (mole fraction) (in water, 308.15 K) was 0.00119 and the solubility (mole fraction) (in water, 313.15 K) was 0.00135. It also gave a solubility (mole fraction) (in water, 318.15 K) of 0.00153 and a solubility (mole fraction) (in water, 323.15 K) of 0.00184.
